# Source: patent US11414425B2 (priority 2018, dated 2022)
# pKi: −log10 of the molar value.
# Target: α5β3γ2 GABAA receptors (Homo sapiens, UniProt P18507+P31644)
# Assay: [3H]Ro15-1788 binding, membranes of Ltk cells stably expressing α5β3γ2 GABAA receptors
# Settings: not given
# Sequence of α5β3γ2 GABAA receptors (P31644 32-462): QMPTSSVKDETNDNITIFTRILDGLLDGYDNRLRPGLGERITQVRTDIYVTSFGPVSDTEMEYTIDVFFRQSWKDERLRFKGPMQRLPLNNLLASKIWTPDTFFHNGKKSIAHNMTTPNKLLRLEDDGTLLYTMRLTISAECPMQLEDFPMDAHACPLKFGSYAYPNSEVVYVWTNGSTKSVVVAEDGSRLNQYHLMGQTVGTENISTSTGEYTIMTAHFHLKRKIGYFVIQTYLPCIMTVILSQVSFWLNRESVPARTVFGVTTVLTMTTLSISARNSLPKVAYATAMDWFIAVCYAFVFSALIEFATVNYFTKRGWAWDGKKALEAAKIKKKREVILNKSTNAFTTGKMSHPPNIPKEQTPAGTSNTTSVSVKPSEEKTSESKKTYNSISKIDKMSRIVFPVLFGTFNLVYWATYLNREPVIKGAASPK
# Sequence of α5β3γ2 GABAA receptors (P28472 26-473 partner): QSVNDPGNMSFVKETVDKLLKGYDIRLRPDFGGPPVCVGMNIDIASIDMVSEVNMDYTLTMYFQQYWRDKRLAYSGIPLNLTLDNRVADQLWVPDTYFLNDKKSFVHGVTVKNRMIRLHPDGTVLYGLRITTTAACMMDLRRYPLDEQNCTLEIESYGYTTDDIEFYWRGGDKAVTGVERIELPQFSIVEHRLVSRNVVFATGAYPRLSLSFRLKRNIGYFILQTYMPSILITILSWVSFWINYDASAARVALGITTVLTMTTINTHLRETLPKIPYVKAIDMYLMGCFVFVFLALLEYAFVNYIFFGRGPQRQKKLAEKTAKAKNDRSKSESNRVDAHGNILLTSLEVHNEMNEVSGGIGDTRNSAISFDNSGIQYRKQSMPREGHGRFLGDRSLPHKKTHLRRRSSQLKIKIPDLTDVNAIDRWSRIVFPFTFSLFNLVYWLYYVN
# Sequence of α5β3γ2 GABAA receptors (P18507 40-475): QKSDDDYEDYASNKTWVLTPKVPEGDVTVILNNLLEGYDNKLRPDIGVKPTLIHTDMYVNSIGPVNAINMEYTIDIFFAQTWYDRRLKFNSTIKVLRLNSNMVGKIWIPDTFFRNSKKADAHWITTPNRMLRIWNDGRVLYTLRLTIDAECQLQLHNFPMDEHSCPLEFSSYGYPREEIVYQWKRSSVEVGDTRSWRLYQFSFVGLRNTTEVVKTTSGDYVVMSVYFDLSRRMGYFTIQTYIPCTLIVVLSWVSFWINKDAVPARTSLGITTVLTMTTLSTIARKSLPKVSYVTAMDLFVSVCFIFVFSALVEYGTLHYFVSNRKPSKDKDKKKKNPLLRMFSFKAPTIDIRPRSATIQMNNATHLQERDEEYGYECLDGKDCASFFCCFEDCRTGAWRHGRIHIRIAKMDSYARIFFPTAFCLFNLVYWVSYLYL
row,SMILES,pKi
1,Cc1noc(-c2ncn3c2Cc2c(Cc4ccc(F)cc4)nnn2-c2cc(Cl)ccc2-3)n1 [Compound 479],> 7.00
2,COc1ccc2c(c1)-n1nncc1Cc1c(C3=NCC(C4CCCCC4)O3)ncn1-2 (racemic) [Compound 690],6.00 to 7.00
3,COc1ccc2c(c1)-n1nncc1Cc1c(-c3cn(-c4ccccc4)nn3)ncn1-2 [Compound 524],6.00 to 7.00
4,Fc1cccc(COCc2ncn3c2Cc2cnnn2-c2cc(Cl)ccc2-3)c1 [Compound 543],6.00 to 7.00
5,Cn1ccc(C#Cc2ncn3c2Cc2cnnn2-c2cc(Cl)ccc2-3)n1 [Compound 661],> 7.00
6,Cc1ncc(C#Cc2ncn3c2Cc2cnnn2-c2cc(Cl)ccc2-3)[nH]1 [Compound 659],> 7.00
7,COc1ccc2c(c1)-n1nncc1Cc1c(C#Cc3ccc(OC(F)F)nc3)ncn1-2 [Compound 693],> 7.00
8,COc1ccc(C#Cc2ncn3c2Cc2cnnn2-c2cc(Cl)ccc2-3)nc1 [Compound 532],> 7.00
9,Clc1ccc2c(c1)-n1nncc1Cc1c(COc3ccccc3)ncn1-2 [Compound 548],> 7.00
10,COc1n[nH]cc1C#Cc1ncn2c1Cc1cnnn1-c1cc(Cl)ccc1-2 [Compound 662],> 7.00
11,Fc1cccc(Cc2nnn3c2Cc2c(-c4nc(-c5ccccc5)no4)ncn2-c2ccc(C(F)(F)F)cc2-3)c1 [Compound 551],6.00 to 7.00
12,Clc1ccc2c(c1)-n1nncc1Cc1c(C#Cc3cnc4occc4c3)ncn1-2 [Compound 658],> 7.00
13,Clc1cccc(COCc2ncn3c2Cc2cnnn2-c2cc(Cl)ccc2-3)c1 [Compound 542],6.00 to 7.00
14,CC(C)Oc1ccc(C#Cc2ncn3c2Cc2cnnn2-c2cc(Cl)ccc2-3)cn1 [Compound 697],> 7.00
15,COCc1nnn2c1Cc1c(C#Cc3cnc(OC)s3)ncn1-c1ccc(OC)cc1-2 [Compound 647],> 7.00
16,Cc1noc(-c2ncn3c2Cc2c(Cc4ccc(F)cc4)nnn2-c2cc(C(F)(F)F)ccc2-3)n1 [Compound 484],> 7.00

# Same assay, conditions: ranges; inhibition of [3H]Ro15-1788 binding
row,SMILES,pKi
1,CCOC(=O)c1ncn2c1Cc1c(Cc3ccccc3Cl)nnn1-c1cc(C)ccc1-2 [Compound 54],> 7.00
2,COCc1nnc2n1Cc1c(C#Cc3ccc4nccn4c3)ncn1-c1ccc(OC)cc1-2 [Compound 684],6.00 to 7.00
3,COCc1nnc2n1Cc1c(C#Cc3c[nH]nc3OC)ncn1-c1ccc(OC)cc1-2 [Compound 657],> 7.00
4,COCc1nnc2n1Cc1c(C#Cc3cccnc3OC)ncn1-c1ccc(Cl)cc1-2 [Compound 614],> 7.00
5,Clc1ccc2c(c1)-c1nnc(Oc3ccccc3)n1Cc1c(C3=N[C@H](c4ccccc4)CO3)ncn1-2 [Compound 541],> 7.00
6,FC(F)(F)c1ccc2c(c1)-n1nncc1Cc1c(C#Cc3ccc(Cl)cc3)ncn1-2 [Compound 502],> 7.00
7,COCc1nnc2n1Cc1c(C#Cc3ncc(OC)cn3)ncn1-c1ccc(OC)cc1-2 [Compound 593],> 7.00
8,COCc1nnc2n1Cc1c(-c3nc(C)no3)ncn1-c1ccc(-c3ccncc3)cc1-2 [Compound 468],< 6.00
9,COCc1nnc2n1Cc1c(C#Cc3cc(C)ccn3)ncn1-c1ccc(OC)cc1-2 [Compound 564],6.00 to 7.00
10,COCc1nnc2n1Cc1c(C#Cc3cnc(C)cn3)ncn1-c1ccc(OC)cc1-2 [Compound 588],> 7.00
11,COCc1nnc2n1Cc1c(C#CC(C)(C)C)ncn1-c1ccc(Cl)cc1-2 [Compound 721],> 7.00
12,COCc1nnc2n1Cc1c(C#Cc3cnc(OC)cn3)ncn1-c1ccc(Cl)cc1-2 [Compound 578],> 7.00
13,CC(C)c1noc(-c2ncn3c2Cc2c(Cc4ccc(F)cc4)nnn2-c2cc(OC(F)(F)F)ccc2-3)n1 [Compound 483],> 7.00
14,COCc1nnn2c1Cc1c(C3=NC[C@@H](c4ccc(Cl)cc4)O3)ncn1-c1ccc(Cl)cc1-2 [Compound 634],> 7.00
15,COCc1nnc2n1Cc1c(-c3nc(C)no3)ncn1-c1cccc(OC)c1-2 [Compound 472],6.00 to 7.00
16,COCc1nnc2n1Cc1c(C#Cc3ccc(Cl)cn3)ncn1-c1ccc(Cl)cc1-2 [Compound 579],> 7.00
17,CCOc1ccc(C#Cc2ncn3c2Cn2c(COC)nnc2-c2cc(Cl)ccc2-3)cn1 [Compound 709],6.00 to 7.00
18,COc1ccc(C#Cc2ncn3c2Cc2cnnn2-c2cc(C(F)(F)F)ccc2-3)nc1 [Compound 554],> 7.00
19,COCc1nnc2n1Cc1c(C#Cc3ccc(SC)nc3)ncn1-c1ccc(OC)cc1-2 [Compound 665],6.00 to 7.00
20,Fc1ccc(-n2cc(-c3ncn4c3Cc3cnnn3-c3cc(Cl)ccc3-4)nn2)cc1 [Compound 525],> 7.00
21,COCc1nnc2n1Cc1c(C#Cc3ccc(F)cn3)ncn1-c1ccc(Cl)cc1-2 [Compound 572],> 7.00
22,Fc1ccc(OCc2ncn3c2Cc2cnnn2-c2cc(Cl)ccc2-3)cc1 [Compound 545],> 7.00

row,SMILES,pKi
1,COCc1nnc2n1Cc1c(C#Cc3cnc(C)nc3)ncn1-c1ccc(OC)cc1-2 [Compound 594],6.00 to 7.00
2,COc1ccc2c(c1)-c1nnc(COC(F)F)n1Cc1c(C#Cc3ccc(OC)nc3)ncn1-2 [Compound 620],> 7.00
3,C#Cc1ncn2c1Cn1c(COCC(F)(F)F)nnc1-c1cc(Cl)ccc1-2 [Compound 342],> 7.00
4,COCc1nnc2n1Cc1c(C#Cc3ccc(OC(C)C)nc3)ncn1-c1ccc(Cl)cc1-2 [Compound 708],> 7.00
5,CC1(C)OC(c2ncn3c2Cc2cnnn2-c2cc(OC(F)(F)F)ccc2-3)=N[C@@H]1c1ccccc1 [Compound 510],> 7.00
6,COc1ncc(C#Cc2ncn3c2Cc2cnnn2-c2cc(Cl)ccc2-3)s1 [Compound 622],> 7.00
7,COCc1nnc2n1Cc1c(C#Cc3cccc(OC)n3)ncn1-c1ccc(Cl)cc1-2 [Compound 611],> 7.00
8,C#Cc1ccc2c(c1)-c1nnc(COC)n1Cc1c(C3=N[C@H](CC(C)C)CO3)ncn1-2 [Compound 280],> 7.00
9,COCc1nnc2n1Cc1c(C#Cc3ccc(OC(F)(F)F)cn3)ncn1-c1ccc(OC)cc1-2 [Compound 613],> 7.00
10,COCc1nnn2c1Cc1c(C#Cc3ccnn3C)ncn1-c1ccc(Cl)cc1-2 [Compound 642],> 7.00
11,COCc1nnc2n1Cc1c(C#Cc3cnc(C)nc3)ncn1-c1ccc(Cl)cc1-2 [Compound 573],6.00 to 7.00
12,Clc1ccc2c(c1)-n1nncc1Cc1c(C3=NCC(c4ccncc4)O3)ncn1-2 (stereo not drawn) [Compound 629],> 7.00
13,FC(F)Oc1ccc2c(c1)-n1nncc1Cc1c(C3=NC[C@H](c4ccccc4)O3)ncn1-2 [Compound 625],6.00 to 7.00
14,COCc1nnc2n1Cc1c(C#Cc3nc(C)cs3)ncn1-c1ccc(OC)cc1-2 [Compound 602],> 7.00
15,CCCc1noc(-c2ncn3c2Cc2c(Cc4ccc(F)cc4)nnn2-c2cc(OC(F)(F)F)ccc2-3)n1 [Compound 486],> 7.00
16,Fc1cccc(Cc2nnn3c2Cc2c(-c4nc(-c5ccccc5)no4)ncn2-c2ccc(Cl)cc2-3)c1 [Compound 550],6.00 to 7.00
17,COCc1nnc2n1Cc1c(C#Cc3ccc(OC)c(F)n3)ncn1-c1ccc(OC)cc1-2 [Compound 583],6.00 to 7.00
18,COCc1nnc2n1Cc1c(C#Cc3ccc(C(F)(F)F)cn3)ncn1-c1ccc(OC)cc1-2 [Compound 587],> 7.00
19,CC(C)c1noc(-c2ncn3c2Cc2c(Cc4ccc(F)cc4)nnn2-c2cc(Cl)ccc2-3)n1 [Compound 489],> 7.00
20,Fc1cccc(Cc2nnn3c2Cc2c(-c4nc(-c5ccccc5)no4)ncn2-c2ccc(OC(F)F)cc2-3)c1 [Compound 552],6.00 to 7.00
21,Cc1noc(-c2ncn3c2Cc2c(Cc4cccc(F)c4)nnn2-c2cc(Cl)ccc2-3)n1 [Compound 477],> 7.00
22,COCc1nnc2n1Cc1c(C#Cc3ccc(OC(F)(F)F)cn3)ncn1-c1ccc(Cl)cc1-2 [Compound 580],> 7.00

row,SMILES,pKi
1,Fc1cccc(OCc2ncn3c2Cc2cnnn2-c2cc(Cl)ccc2-3)c1 [Compound 546],> 7.00
2,COCc1nnc2n1Cc1c(C#Cc3ccc(C#N)cn3)ncn1-c1ccc(Cl)cc1-2 [Compound 577],6.00 to 7.00
3,COCc1nnc2n1Cc1c(C#Cc3ncc(C)cn3)ncn1-c1ccc(OC)cc1-2 [Compound 595],6.00 to 7.00
4,COc1ccc2c(c1)-n1nncc1Cc1c(C#Cc3ccc(C(F)(F)F)cn3)ncn1-2 [Compound 529],6.00 to 7.00
5,Cn1nccc1C#Cc1ncn2c1Cc1cnnn1-c1cc(Cl)ccc1-2 [Compound 660],> 7.00
6,CC(C)c1noc(-c2ncn3c2Cc2c(Cc4ccc(F)cc4)nnn2-c2cc(C(F)(F)F)ccc2-3)n1 [Compound 490],> 7.00
7,COCc1nnc2n1Cc1c(C#Cc3ncccn3)ncn1-c1ccc(Cl)cc1-2 [Compound 571],> 7.00
8,Clc1ccc2c(c1)-n1nncc1Cc1c(C#Cc3ccc(-n4cccc4)cc3)ncn1-2 [Compound 702],> 7.00
9,COCc1nnc2n1Cc1c(C#Cc3cccc(C)n3)ncn1-c1ccc(OC)cc1-2 [Compound 598],> 7.00
10,Fc1ccccc1OCc1ncn2c1Cc1cnnn1-c1cc(Cl)ccc1-2 [Compound 547],6.00 to 7.00
11,COCc1nnc2n1Cc1c(C#Cc3ncc(C)cn3)ncn1-c1ccc(Cl)cc1-2 [Compound 600],6.00 to 7.00
12,COCc1nnc2n1Cc1c(C#Cc3cnc(OC)nc3)ncn1-c1ccc(OC)cc1-2 [Compound 584],6.00 to 7.00
13,Cc1noc(-c2ncn3c2Cc2c(Cc4ccc(F)cc4)nnn2-c2cc(OC(F)(F)F)ccc2-3)n1 [Compound 478],> 7.00
14,COCc1nnc2n1Cc1c(C#Cc3cccc(OC)n3)ncn1-c1ccc(OC)cc1-2 [Compound 612],> 7.00
15,COCc1nnc2n1Cc1c(C#Cc3ccc4ncccc4c3)ncn1-c1ccc(OC)cc1-2 [Compound 714],> 7.00
16,Clc1ccc([C@@H]2CN=C(c3ncn4c3Cc3cnnn3-c3cc(Cl)ccc3-4)O2)cc1 [Compound 719],> 7.00
17,COCc1nnc2n1Cc1c(C#Cc3ccc(F)cn3)ncn1-c1ccc(OC)cc1-2 [Compound 585],> 7.00
18,COCc1nnc2n1Cc1c(C#Cc3ccc(Cl)cn3)ncn1-c1ccc(OC)cc1-2 [Compound 591],> 7.00
19,COCc1nnn2c1Cc1c(C#Cc3ccn(C)n3)ncn1-c1ccc(Cl)cc1-2 [Compound 643],> 7.00
20,COCc1nnc2n1Cc1c(C#Cc3ccc(C#N)cn3)ncn1-c1ccc(OC)cc1-2 [Compound 590],6.00 to 7.00
21,COCc1nnc2n1Cc1c(C#Cc3ncc(C)s3)ncn1-c1ccc(OC)cc1-2 [Compound 601],> 7.00
